Data as given in patent publication US10183950B2, “Thienopyrimidine inhibitors of atypical protein kinase C” (Cancer Research Technology Limited, priority 2011, dated 2019).

molecular target: T1, full-length human PKCι (Homo sapiens, UniProt P41743); assay: PKCι IC50 IMAP fluorescence polarisation assay, full-length enzyme; type: biochemical; details: full length PKCi at 15 μM ATP; read-out: IC50 in IMAP assay against full length PKCi
T1 construct: Recombinant, full-length human PKCι expressed in Sf21 insect cells is also commercially available; purchased; host or cells: Sf21 insect cells
T1 sequence (P41743 1-596): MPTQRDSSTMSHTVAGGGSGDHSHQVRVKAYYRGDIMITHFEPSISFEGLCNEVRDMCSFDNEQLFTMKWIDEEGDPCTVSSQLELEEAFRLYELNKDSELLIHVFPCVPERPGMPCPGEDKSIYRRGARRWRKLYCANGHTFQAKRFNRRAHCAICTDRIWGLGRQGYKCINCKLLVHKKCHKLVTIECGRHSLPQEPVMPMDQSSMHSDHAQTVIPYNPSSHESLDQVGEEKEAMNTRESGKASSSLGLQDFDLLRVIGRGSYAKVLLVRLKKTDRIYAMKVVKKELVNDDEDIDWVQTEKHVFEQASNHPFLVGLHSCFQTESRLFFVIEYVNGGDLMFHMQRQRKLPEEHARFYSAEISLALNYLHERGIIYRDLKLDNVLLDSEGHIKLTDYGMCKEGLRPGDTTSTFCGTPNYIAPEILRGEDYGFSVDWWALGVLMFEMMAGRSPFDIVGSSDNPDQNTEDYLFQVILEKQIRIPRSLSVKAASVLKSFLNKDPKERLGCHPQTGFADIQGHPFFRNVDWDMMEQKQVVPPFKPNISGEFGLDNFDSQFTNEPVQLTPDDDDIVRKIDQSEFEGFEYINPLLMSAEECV

Compound | IC50
CNCC#Cc1csc2c(NC[C@@H](N)Cc3ccccc3)nc(-c3ccncc3)nc12 [compound 538, (S)-N*1*-[7-(3-Methylamino-prop-1-ynyl)-2-pyridin-4-yl-thieno[3,2-d]pyrimidin-4-yl]-3-phenyl-propane-1,2-diamine] | 100 to 1000 nM
Cc1[nH]ncc1-c1nc(N[C@@H]2CCNC2)c2sccc2n1 [compound 633, [2-(5-Methyl-1H-pyrazol-4-yl)-thieno[3,2-d]pyrimidin-4-yl]-(R)-pyrrolidin-3-yl-amine] | 10000 to 40000 nM
N[C@H](CNc1nc(-c2ccncc2F)nc2ccsc12)Cc1ccccc1 [compound 355, (S)-N*1*-[2-(3-Fluoro-pyridin-4-yl)-thieno[3,2-d]pyrimidin-4-yl]-3-phenyl-propane-1,2-diamine] | 1000 to 10000 nM
CNC(=O)Nc1cc(-c2nc(N[C@@H]3CCNC3)c3sccc3n2)ccn1 [compound 583, 1-Methyl-3-{4-[4-((R)-pyrrolidin-3-ylamino)-thieno[3,2-d]pyrimidin-2-yl]-pyridin-2-yl}-urea] | 1000 to 10000 nM
c1cc(-c2nc(N[C@@H]3CCNC3)c3sccc3n2)cc(Sc2cc(-c3nc(N[C@@H]4CCNC4)c4sccc4n3)ccn2)n1 [compound 632] | 1000 to 10000 nM
c1cc(-c2nc(N[C@@H]3CCCNC3)c3sccc3n2)ccn1 [compound 316, (R)-Piperidin-3-yl-(2-pyridin-4-yl-thieno[3,2-d]pyrimidin-4-yl)-amine] | 1000 to 10000 nM
NC(=O)CN1CC[C@@H](Nc2nc(-c3ccnc(Nc4ccccc4)c3)nc3ccsc23)C1 [compound 631, 2-{(R)-3-[2-(2-Phenylamino-pyridin-4-yl)-thieno[3,2-d]pyrimidin-4-ylamino]-pyrrolidin-1-yl}-acetamide] | 10000 to 40000 nM
Brc1csc2c(N3CCNCC3)nc(-c3ccncc3)nc12 [compound 350, 7-Bromo-4-piperazin-1-yl-2-pyridin-4-yl-thieno[3,2-d]pyrimidine] | 100 to 1000 nM
CC(C)C[C@H](N)CNc1nc(-c2ccncc2)nc2c(Br)csc12 [compound 346, (S)-N*1*-(7-Bromo-2-pyridin-4-yl-thieno[3,2-d]pyrimidin-4-yl)-4-methyl-pentane-1,2-diamine] | 1000 to 10000 nM
C[C@H](O)CNc1cc(-c2nc(N[C@@H]3CCNC3)c3sccc3n2)ccn1 [compound 591, (S)-1-{4-[4-((R)-Pyrrolidin-3-ylamino)-thieno[3,2-d]pyrimidin-2-yl]-pyridin-2-ylamino}-propan-2-ol] | 1000 to 10000 nM
c1ccc(Nc2csc3c(N[C@@H]4CCNC4)nc(-c4ccncc4)nc23)nc1 [compound 487, 2-Pyridin-4-yl-N*7*- pyridin-2-yl-N*4*-(R)-pyrrolidin-3-yl-thieno[3,2-d]pyrimidine-4,7-diamine] | 1000 to 10000 nM
O[C@@H](CNc1cc(-c2nc(N[C@@H]3CCNC3)c3sccc3n2)ccn1)c1ccccc1 [compound 593, (R)-1-Phenyl-2-{4-[4-((R)-pyrrolidin-3-ylamino)-thieno[3,2-d]pyrimidin-2-yl]-pyridin-2-ylamino}-ethanol] | 1000 to 10000 nM
N#Cc1csc2c(NC[C@@H](N)Cc3ccccc3)nc(-c3ccncc3)nc12 [compound 560, 4-((S)-2-Amino-3-phenyl-propylamino)-2-pyridin-4-yl-thieno[3,2-d]pyrimidine-7-carbonitrile] | < 100 nM
Cc1ccccc1-c1csc2c(NC[C@@H](N)Cc3ccccc3)nc(-c3ccncc3F)nc12 [compound 433, (S)-N*1*-[2-(3-Fluoro-pyridin-4-yl)-7-o-tolyl-thieno[3,2-d]pyrimidin-4-yl]-3-phenyl-propane-1,2-diamine] | 1000 to 10000 nM
CN(C)C(=O)Nc1cc(-c2nc(N[C@@H]3CCNC3)c3sccc3n2)ccn1 [compound 581, 1,1-Dimethyl-3-{4-[4-((R)-pyrrolidin-3-ylamino)-thieno[3,2-d]pyrimidin-2-yl]-pyridin-2-yl}-urea] | 1000 to 10000 nM
N[C@H](CNc1nc(-c2ccncc2)nc2c(C#CCCCO)csc12)Cc1ccccc1 [compound 535, 5-[4-((S)-2-Amino-3-phenyl-propylamino)-2-pyridin-4-yl-thieno[3,2-d]pyrimidin-7-yl]-pent-4-yn-1-ol] | 1000 to 10000 nM
NC(=O)CN1CC[C@@H](Nc2nc(-c3ccncc3)nc3ccsc23)C1 [compound 320, 2-[(R)-3-(2-Pyridin-4-yl-thieno[3,2-d]pyrimidin-4-ylamino)-pyrrolidin-1-yl]-acetamide] | 10000 to 40000 nM
CC(C)(C)c1cc2nc(-c3ccncc3)nc(NC[C@@H](N)Cc3ccccc3)c2s1 [compound 324, (S)-N*1*-(6-tert-Butyl-2-pyridin-4-yl-thieno[3,2-d]pyrimidin-4-yl)-3-phenyl-propane-1,2-diamine] | 10000 to 40000 nM
C[C@@H](Nc1cc(-c2nc(N[C@@H]3CCNC3)c3sccc3n2)ccn1)c1ccccc1 [compound 586, {2-[2-((R)-1-Phenyl-ethylamino)-pyridin-4-yl]-thieno[3,2-d]pyrimidin-4-yl}-(R)-pyrrolidin-3-yl-amine] | 100 to 1000 nM
Nc1csc2c(N[C@@H]3CCNC3)nc(-c3ccncc3)nc12 [compound 567, 2-Pyridin-4-yl-N*4*-(R)-pyrrolidin-3-yl-thieno[3,2-d]pyrimidine-4,7-diamine] | 1000 to 10000 nM
COC/C=C/c1csc2c(NC[C@@H](N)Cc3ccccc3)nc(-c3ccncc3)nc12 [compound 404, (S)-N*1*-[7-((E)-3-Methoxy-propenyl)-2-pyridin-4-yl-thieno[3,2-d]pyrimidin-4-yl]-3-phenyl-propane-1,2-diamine] | 100 to 1000 nM
Fc1cnc(Nc2ccccc2)cc1-c1nc(N[C@@H]2CCNC2)c2sccc2n1 [compound 579, [2-(5-Fluoro-2-phenylamino-pyridin-4-yl)-thieno[3,2-d]pyrimidin-4-yl]-(R)-pyrrolidin-3-yl-amine] | 1000 to 10000 nM
C[C@@H](F)C#Cc1csc2c(NC[C@@H](N)Cc3ccccc3)nc(-c3ccncc3)nc12 [compound 544, (S)—N*1*-[7-(3-Fluoro-but-1-ynyl)-2-pyridin-4-yl-thieno[3,2-d]pyrimidin-4-yl]-3-phenyl-propane-1,2-diamine] | < 100 nM
c1cc(-c2nc(N[C@@H]3CCNC3)c3scc(-c4ccn[nH]4)c3n2)ccn1 [compound 403, [7-(2H-Pyrazol-3-yl)-2-pyridin-4-yl-thieno[3,2-d]pyrimidin-4-yl]-(R)-pyrrolidin-3-yl-amine] | < 100 nM
NC(CNc1nc(-c2ccncc2F)nc2c(-c3ccncc3)csc12)Cc1ccccc1 (stereo in doubt) [compound 429, (R)-N*1*-[2-(3-Fluoro-pyridin-4-yl)-7-pyridin-4-yl-thieno[3,2-d]pyrimidin-4-yl]-3-phenyl-propane-1,2-diamine] | 1000 to 10000 nM
Cc1sc2c(NC[C@@H](N)Cc3ccccc3)nc(-c3ccncc3)nc2c1C#CC(C)(C)O [compound 504, 4-[4-((S)-2-Amino-3-phenyl-propylamino)-6-methyl-2-pyridin-4-yl-thieno[3,2-d]pyrimidin-7-yl]-2-methyl-but-3-yn-2-ol] | < 100 nM
N[C@H](CNc1nc(-c2ccnc(NC(=O)c3cccs3)c2)nc2ccsc12)Cc1ccc(C(F)(F)F)cc1 [compound 630, Thiophene-2-carboxylic acid (4-{4-[(S)-2-amino-3-(4-trifluoromethyl-phenyl)-propylamino]-thieno[3,2-d]pyrimidin-2-yl}-pyridin-2-yl)-amide] | 10000 to 40000 nM
CNc1ccc(-c2c(C(C)(C)C)sc3c(NC[C@@H](N)Cc4ccccc4)nc(-c4ccncc4)nc23)cc1 [compound 448, (S)-N*1*-[6-tert-Butyl-7-(4-methylamino-phenyl)-2-pyridin-4-yl-thieno[3,2-d]pyrimidin-4-yl]-3-phenyl-propane-1,2-diamine] | 1000 to 10000 nM

same assay, conditions: full length PKCi at 15 μM ATP; read-out: IC50 in IMAP assay against full length PKCi (Activity)

Compound | IC50
NCCNc1nc(-c2ccncc2)nc2sc3c(c12)CCC1(C3)OCCO1 [compound 42] | 1000 to 10000 nM
COc1ccccc1C[C@H](N)CNc1nc(-c2ccncc2)nc2sc3c(c12)CCSC3 [compound 64, (S)-3-(2-Methoxy-phenyl)-N*1*-(2-pyridin-4-yl-5,8-dihydro-6H-thio-pyrano[4′,3′:4,5]thieno[2,3-d]pyrimidin-4-yl)-propane-1,2-diamine] | 10000 to 40000 nM
N[C@@H](CNc1nc(-c2ccncc2)nc2sc3c(c12)CCCC3)Cc1cccc2ccccc12 [compound 52, (R)-3-Naphthalen-1-yl-N*1*- (2-pyridin-4-yl-5,6,7,8-tetrahydro-benzo[4,5]thieno[2,3-d]pyrimidin-4-yl)-propane-1,2-diamine] | 1000 to 10000 nM
N[C@H](CNc1nc(-c2ccncc2)nc2sc3c(c12)CCSC3)Cc1ccccc1 [compound 80, (S)-3-Phenyl-N*1*-(2-pyridin-4-yl-5,8-dihydro-6H-thiopyrano[4′,3′:4,5]thieno[2,3-d]pyrimidin-4-yl)-propane-1,2-diamine] | 100 to 1000 nM
NC(CNc1nc(-c2ccncc2)nc2sc3c(c12)CCCC3)Cc1c[nH]c2ccccc12 (stereo in doubt) [compound 63, (S)-3-(1H-Indol-3-yl)-N*1*- (2-pyridin-4-yl-5,6,7,8-tetrahydro-benzo[4,5]thieno[2,3-d]pyrimidin-4-yl)-propane-1,2-diamine] | 1000 to 10000 nM
